We go through six compounds from PMC3375280 (PLoS ONE, 2012).

“And” between values parts separate entries of the source, which are not always exact repeats. Equal values may be shown once.

For one experiment, the system named is AT1 receptor. To be noted: Cys76 accessible; cited from earlier work.
For experiment [1], the target named is T1, wild-type (WT) AT1 receptor (Rattus norvegicus, UniProt P25095).
T1 sequence (P25095 1-359): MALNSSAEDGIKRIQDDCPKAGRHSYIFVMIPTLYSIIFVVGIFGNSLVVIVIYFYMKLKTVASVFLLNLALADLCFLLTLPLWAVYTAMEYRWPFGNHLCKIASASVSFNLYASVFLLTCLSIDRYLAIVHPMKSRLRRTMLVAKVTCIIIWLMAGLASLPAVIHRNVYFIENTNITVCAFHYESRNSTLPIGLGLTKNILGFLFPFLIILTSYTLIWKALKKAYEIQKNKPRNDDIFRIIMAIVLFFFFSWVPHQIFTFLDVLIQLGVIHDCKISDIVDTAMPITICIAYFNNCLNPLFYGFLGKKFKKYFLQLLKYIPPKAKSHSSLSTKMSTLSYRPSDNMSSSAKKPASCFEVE
The experiment in a line: inositol phosphate (IP) production in COS1 cells expressing WT AT1 receptor. To be noted: 1 µM compound, vs basal IP production.
Description: The test compounds were added 1 h before the measurement of IP.
The WT and mutant AT1 receptors were transiently transfected into COS1 cells using Lipofectamine 2000 liposomal reagent (Roche Applied Science) according to the manufacturer’s instructions.
Cells expressing the WT and mutant AT1 receptors were incubated for 30 minutes at 22°C with or without the indicated concentrations of ARBs. The cells were washed-out once with the use of excess cold HBSS, and used in an IP production study. Total soluble IP was measured by the perchloric acid extraction method, as described previously [16].

The target in experiment [2] is T2, AT1 wild-type (WT) receptor (Rattus norvegicus, UniProt P25095).
T2 construct: expressed in transfected cells; host or cells: COS1
T2 sequence (P25095 1-359): T1 sequence (P25095 1-359)
Description: 125I-[Sar1,Ile8]AngII competition binding, wild-type receptor. To be noted: WT; for Kd: COS1 cell membranes, 100 pM 125I-[Sar1,Ile8]AngII, 1 h 22°C, read-out: Binding affinity (Kd); for Kd ratio relative to olmesartan (in parentheses): compound Kd / olmesartan Kd. On the procedure: The Kd and Bmax values of receptor binding were determined by ^125I-[Sar^1, Ile^8] […] Membranes expressing the WT or mutant AT1 receptors were incubated with 100 pM ^125I-[Sar^1, Ile^8] […] The binding reaction was terminated by filtering the incubation mixture through Whatman GF/C glass filters, and the residues were extensively washed further with binding buffer. The bound ligand fraction was determined from the counts per minute (cpm) remaining on the membrane. Binding kinetics values were determined as previously described.

In the case of `CS(=O)(=O)SCCN` [MTSEA^+, methanethiosulphonate ethyl-ammonium], in the experiment with AT1 receptor, the “% inhibition of 125I-[Sar1,Ile8]AngII binding by MTSEA+ reagent” value is on record as “approximately 30%”.

Regarding `CCCc1nc(C(C)(C)O)c(C(=O)O)n1Cc1ccc(-c2cc(Cc3ccc(O)cc3)ccc2-c2nnn[nH]2)cc1` [R781253], in experiment [1], the “Pharmacological behaviour toward IP production (agonism / neutral antagonism / inverse agonism)” value is reported as “inverse agonism”. Also, in experiment [2], the Kd came to 21 ± 10 nM and the “Kd ratio relative to olmesartan (in parentheses)” value (“Kd ratio relative to olmesartan” below) is 9.1 fold.

Take `CCCc1nc(C(C)(C)O)c(C(=O)O)n1Cc1ccc(-c2cc(Cc3ccc(OCOC)cc3)ccc2-c2nnn[nH]2)cc1` [R781254]: in experiment [1], the “Pharmacological behaviour toward IP production (agonism / neutral antagonism / inverse agonism)” value was “inverse agonism”. In addition, in experiment [2], the dissociation constant Kd stood at 396 ± 80 nM and the “Kd ratio relative to olmesartan” value turned out to be 172 fold.

In the case of `CCCc1nc(C(C)(C)O)c(C(=O)O)n1Cc1ccc(-c2cc(Cc3cccc(O)c3)ccc2-c2nnn[nH]2)cc1` [R791212], the “Pharmacological behaviour toward IP production (agonism / neutral antagonism / inverse agonism)” value in experiment [1] is listed as “neutral antagonism”. Moreover, the dissociation constant (Kd) in experiment [2] turned out to be 125 ± 26 nM.

Turning to `CCCc1nc(C(C)C)c(C(N)=O)n1Cc1ccc(-c2cc(Cc3ccc(O)cc3)ccc2-c2nnn[nH]2)cc1` [R795100], the “Pharmacological behaviour toward IP production (agonism / neutral antagonism / inverse agonism)” value in experiment [1] was “agonism”. Besides, the dissociation constant Kd in experiment [2] was found to be 179 ± 84 nM.

For the compound `CCCc1nc(C(C)(C)O)c(C(N)=O)n1Cc1ccc(-c2cc(Cc3ccccc3)ccc2-c2nnn[nH]2)cc1` [R801832], the “Pharmacological behaviour toward IP production (agonism / neutral antagonism / inverse agonism)” value in experiment [1] is reported as “agonism”. Besides, in experiment [2], the Kd was 276 ± 22 nM; the “Kd ratio relative to olmesartan” value is 100 fold and 120 fold.

Broadly, the Kd is a measure of binding affinity in units of concentration.
